# Measured values published in US12728119B2, “Pharmaceutical composition for preventing or treating cancer comprising 3-ketoacyl CoA thiolase inhibitor and carnitine acylcarnitine carrier inhibitor” (NATIONAL CANCER CENTER, priority 2020, dated 2026).
# Several values for one entry are separate records, joined by “and”; a condition that tells them apart may be missing. Identical values can stand only once.
# Columns and labels:
# Assay in all cases: SRB analysis 2
# Format in all cases: cell-based
# [1] = test system: AsPC-1 pancreatic cancer cells; details: 48 hours
# Experimental: (§1) The SRB assay was performed as follows: each cell line (100 μl) was seeded into 96-well microtiter plates at densities ranging from 5,000 to 20,000 cells/well depending on the doubling time of each cell line. After cell seeding, microtiter plates were incubated for 24 h before addition of experimental drug. Drugs were prepared at the indicated concentrations and 100 μl was added to each well; The plates were then incubated in a CO2 incubator. Then, cold TCA was added to terminate the assay. Cells were fixed in situ by gentle addition of 50 μl of cold 50% (w/v) TCA (final concentration: 10% TCA) and incubated at 4° C. for 60 min. The supernatant was discarded and the plate was washed 5 times with tap water and then air dried. A solution (100 μl) of 0.4% (w/v) SRB (Sulforhodamine B) in 1% acetic acid was added to each well, and the plate was left at room temperature for 10 minutes. After staining, the plates were air dried after washing 5 times with 1% acetic acid to remove unbound dye. The bound dye was then solubilized with 10 mM trizma base and the absorbance was recorded at 515 nm using an automated plate reader.
# [2] = test system: BxPC-3 pancreatic cancer cells; details: 48 hours
# Experimental: as §1
# [3] = test system: MIA PaCa2 pancreatic cancer cells; details: MIA PaCa-2, 48 hours
# Experimental: as §1
# [4] = test system: Panc-1 pancreatic cancer cells; details: 48 hours
# Experimental: as §1
# [5] = test system: SNU-213 pancreatic cancer cells; details: SNU213, 48 hours
# Experimental: as §1
# [6] = test system: SNU-324 pancreatic cancer cells; details: SNU324, 48 hours
# Experimental: as §1
# [7] = test system: SU.86.86 pancreatic cancer cells; details: 48 hours
# Experimental: as §1
# [8] = test system: SW1990 pancreatic cancer cells; details: 48 hours
# Experimental: as §1
compound,measurement,setting,value
"Cc1c(OCC(F)(F)F)ccnc1C[S+]([O-])c1nc2ccccc2[nH]1 (centres unmarked) [KN511, lansoprazole]",degree of cell growth based on the control (100%),[1]; KN511 50 μM,44.46% and 38.02%
same,degree of cell growth based on the control (100%),[1]; KN511 100 μM,20.33% and 14.98%
same,degree of cell growth based on the control (100%),[2]; KN511 50 μM,30.51% and 41.39%
same,degree of cell growth based on the control (100%),[2]; KN511 100 μM,−4.87% and −1.66%
same,degree of cell growth based on the control (100%),[3]; KN511 50 μM,72.22% and 68.24%
same,degree of cell growth based on the control (100%),[3]; KN511 100 μM,24.61% and 16.12%
same,degree of cell growth based on the control (100%),[4]; KN511 50 μM,65.77% and 39.30%
same,degree of cell growth based on the control (100%),[5]; KN511 50 μM,46.12% and 49.55%
same,degree of cell growth based on the control (100%),[6]; KN511 50 μM,16.15% and 17.09%
same,degree of cell growth based on the control (100%),[6]; KN511 100 μM,4.93% and 8.06%
same,degree of cell growth based on the control (100%),[7]; KN511 50 μM,44.93% and 31.47%
same,degree of cell growth based on the control (100%),[8]; KN511 50 μM,2.62% and 7.49%
same,degree of cell growth based on the control (100%),[8]; KN511 100 μM,−25.25%
"COc1ccnc(C[S+]([O-])c2nc3ccc(OC(F)F)cc3[nH]2)c1OC (centres unmarked) [KN512, pantoprazole]",degree of cell growth based on the control (100%),[1]; KN512 100 μM,64.75% and 71.27%
same,degree of cell growth based on the control (100%),[1]; KN512 200 μM,23.37% and 25.43%
same,degree of cell growth based on the control (100%),[2]; KN512 100 μM,34.14% and 49.52%
same,degree of cell growth based on the control (100%),[2]; KN512 200 μM,−10.63% and −6.75%
same,degree of cell growth based on the control (100%),[3]; KN512 100 μM,62.60% and 66.74%
same,degree of cell growth based on the control (100%),[3]; KN512 200 μM,5.82% and 1.98%
same,degree of cell growth based on the control (100%),[4]; KN512 100 μM,54.90% and 57.01%
same,degree of cell growth based on the control (100%),[4]; KN512 200 μM,6.03% and 12.81%
same,degree of cell growth based on the control (100%),[5]; KN512 100 μM,66.09% and 59.49%
same,degree of cell growth based on the control (100%),[5]; KN512 200 μM,36.60% and 51.18%
same,degree of cell growth based on the control (100%),[6]; KN512 100 μM,61.20% and 74.13%
same,degree of cell growth based on the control (100%),[6]; KN512 200 μM,23.82% and 21.77%
same,degree of cell growth based on the control (100%),[7]; KN512 100 μM,59.26% and 70.59%
same,degree of cell growth based on the control (100%),[7]; KN512 200 μM,19.69% and 26.47%
same,degree of cell growth based on the control (100%),[8]; KN512 100 μM,70.30% and 73.00%
same,degree of cell growth based on the control (100%),[8]; KN512 200 μM,25.58% and 41.93%
